Measured values: patent publication US10550105B2 (Ribon Therapeutics Inc., priority 2018, dated 2020)

These compounds were tested against PARP7 (Homo sapiens (Human), UniProt Q7Z3E1) (assay: Enzymatic assay for inhibition of PARP7: TR-FRET displacement of biotinylated Probe A from the TIPARP active site). Details: Table A-1.
Format: binding
In short: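 TR-FRET, ex 320 nm / em 615 and 665 nm. Signal ratio reflects complex formation.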

Sequence of PARP7 (Q7Z3E1 whole entry): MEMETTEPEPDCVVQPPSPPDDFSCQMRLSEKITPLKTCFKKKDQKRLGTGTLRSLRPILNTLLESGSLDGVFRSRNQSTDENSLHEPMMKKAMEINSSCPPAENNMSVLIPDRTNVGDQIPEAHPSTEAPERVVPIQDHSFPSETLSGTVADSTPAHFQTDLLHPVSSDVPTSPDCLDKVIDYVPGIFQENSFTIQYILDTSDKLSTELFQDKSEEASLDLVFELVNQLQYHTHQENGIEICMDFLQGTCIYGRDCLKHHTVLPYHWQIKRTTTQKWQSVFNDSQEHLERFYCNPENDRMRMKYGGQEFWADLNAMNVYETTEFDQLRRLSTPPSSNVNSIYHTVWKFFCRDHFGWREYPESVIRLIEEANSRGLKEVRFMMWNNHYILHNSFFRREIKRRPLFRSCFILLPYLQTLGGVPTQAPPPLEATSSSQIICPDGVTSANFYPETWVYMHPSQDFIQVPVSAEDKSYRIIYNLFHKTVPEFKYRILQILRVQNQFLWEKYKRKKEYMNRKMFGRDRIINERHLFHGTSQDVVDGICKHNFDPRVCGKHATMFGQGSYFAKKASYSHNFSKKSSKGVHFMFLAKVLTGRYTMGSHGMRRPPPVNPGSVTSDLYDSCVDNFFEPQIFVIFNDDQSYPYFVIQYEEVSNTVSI

| Structure (SMILES) | IC50 [nM] |
| --- | --- |
| COCC[C@@H](COCCC(=O)N1CCN(c2ncc(C(F)(F)F)cn2)CC1)Nc1cn[nH]c(=O)c1C(F)(F)F [Example 686, (S)-5-((4-Methoxy-1-(3-oxo-3-(4-(5-(trifluoromethyl)pyrimidin-2-yl)piperazin-1-yl)propoxy)butan-2-yl)amino)-4-(trifluoromethyl)pyridazin-3(2H)-one] | < 100 |
| COC[C@@H](COCCC(=O)N1CCN(c2ccc(C(F)(F)F)cn2)CC1)Nc1cn[nH]c(=O)c1C(F)(F)F [Example 594, 5-[[(2S)-1-Methoxy-3-(3-oxo-3-[4-[5-(trifluoromethyl)pyridin-2-yl]piperazin-1-yl]propoxy)propan-2-yl]amino]-4-(trifluoromethyl)-2,3-dihydropyridazin-3-one] | < 100 |
| CN1CCC(Oc2ccc3c(c2)CN(c2cn[nH]c(=O)c2C(F)(F)F)C3)CC1 [Example 263, 5-(5-((1-Methylpiperidin-4-yl)oxy)isoindolin-2-yl)-4-(trifluoromethyl)pyridazin-3(2H)-one] | < 100 |
| CN1CCC(Oc2cccc3c2CN(c2cn[nH]c(=O)c2Cl)C3)CC1 [Example 257, 4-Chloro-5-(4-((1-methylpiperidin-4-yl)oxy)isoindolin-2-yl)pyridazin-3(2H)-one] | ≥ 1000 |
| C[C@H]1c2ccccc2CN1c1cn[nH]c(=O)c1C(F)(F)F [Example 250, (S)-5-(1-Methylisoindolin-2-yl)-4-(trifluoromethyl)pyridazin-3(2H)-one] | 100 to 1000 |
| N#Cc1ccc(N2CCN(C(=O)CCOCC3CCCCN3c3cn[nH]c(=O)c3Br)CC2)nc1 (centres unmarked) [Example 131, 6-(4-(3-((1-(5-bromo-6-oxo-1,6-dihydropyridazin-4-yl)piperidin-2-yl)methoxy)propanoyl)piperazin-1-yl)nicotinonitrile] | 100 to 1000 |
| N#Cc1ccc(N2CCN(C(=O)C[C@H](N)COC[C@@H]3CCCN3c3cn[nH]c(=O)c3C(F)(F)F)CC2)nc1 [Example 145B, 6-[4-[(3S)-3-amino-4-[[(2S)-1-[6-oxo-5-(trifluoromethyl)-1,6-dihydropyridazin-4-yl]pyrrolidin-2-yl]methoxy]butanoyl]piperazin-1-yl]pyridine-3-carbonitrile; formic acid] | < 100 |
| O=C(CCOCCOc1cn[nH]c(=O)c1Br)N1CCN(c2ncc(Cl)cn2)CC1 [Example 547, 4-Bromo-5-(2-[3-[4-(5-chloropyrimidin-2-yl)piperazin-1-yl]-3-oxopropoxy]ethoxy)-2,3-dihydropyridazin-3-one] | < 100 |
| O=c1[nH]ncc(N2Cc3c(F)ccc(OCCO)c3C2)c1C(F)(F)F [Example 283, 5-(4-Fluoro-7-(2-hydroxyethoxy)isoindolin-2-yl)-4-(trifluoromethyl)pyridazin-3(2H)-one] | 100 to 1000 |
| N#Cc1ccc(N2CCN(C(=O)c3ccc(OC[C@H]4c5ccccc5CN4c4cn[nH]c(=O)c4C(F)(F)F)cc3)CC2)nc1 (single isomer, unassigned) [Example 35 Isomer B] | 100 to 1000 |
| O=C(CCOC[C@@H]1c2ccccc2CN1c1cn[nH]c(=O)c1Cl)N1CCN(c2ncc(C(F)(F)F)cn2)CC1 [Example 415, (S)-4-Chloro-5-(1-((3-oxo-3-(4-(5-(trifluoromethyl)pyrimidin-2-yl)piperazin-1-yl)propoxy)methyl)isoindolin-2-yl)pyridazin-3(2H)-one] | < 100 |
| C[C@@H](COCCC(=O)N1CCC(c2ccc(C#N)cn2)CC1)Oc1cn[nH]c(=O)c1C(F)(F)F [Example 658, (S)-6-(1-(3-(2-((6-Oxo-5-(trifluoromethyl)-1,6-dihydropyridazin-4-yl)oxy)propoxy)propanoyl)piperidin-4-yl)nicotinonitrile] | < 100 |
| N#Cc1ccc(N2CCN(C(=O)c3cncc(OC[C@@H]4c5ccccc5CN4c4cn[nH]c(=O)c4C(F)(F)F)c3)CC2)nc1 [Example 353, (S)-6-(4-(5-((2-(6-Oxo-5-(trifluoromethyl)-1,6-dihydropyridazin-4-yl)isoindolin-1-yl)methoxy)nicotinoyl)piperazin-1-yl)nicotinonitrile] | < 100 |
| C[C@@H](COCCC(=O)N1CCC(Oc2ncc(C(F)(F)F)s2)C1)Nc1cn[nH]c(=O)c1C(F)(F)F (stereo partly drawn) [Example 720, 5-(((2S)-1-(3-Oxo-3-(3-((5-(trifluoromethyl)thiazol-2-yl)oxy)pyrrolidin-1-yl)propoxy)propan-2-yl)amino)-4-(trifluoromethyl)pyridazin-3(2H)-one] | < 100 |
| N#Cc1ccc(N2CCN(C(=O)CCNCCOc3cn[nH]c(=O)c3C(F)(F)F)CC2)nc1 [Example 502] | ≥ 1000 |
| N#Cc1ccc(N2CCN(C(=O)C[C@H]3CC[C@H]([C@@H]4c5ccccc5CN4c4cn[nH]c(=O)c4C(F)(F)F)O3)CC2)nc1 (single isomer, unassigned) [Example 612 Isomer C] | ≥ 1000 |
| N#Cc1ccc(N2CCN(C(=O)CCO[C@@H]3CCC[C@H]3Oc3cn[nH]c(=O)c3C(F)(F)F)CC2)nc1 (single isomer, unassigned) [Example 572 Isomer B] | 100 to 1000 |
| N#Cc1ccc(N2CCN(C(=O)CCCOCC3c4ccccc4CN3c3cn[nH]c(=O)c3C(F)(F)F)CC2)nc1 (centres unmarked) [Example 408, 6-(4-(4-((2-(6-Oxo-5-(trifluoromethyl)-1,6-dihydropyridazin-4-yl)isoindolin-1-yl)methoxy)butanoyl)piperazin-1-yl)nicotinonitrile] | < 100 |
| N#Cc1ccc(N2CCN(C(=O)CCNCCOc3cccc4c3CN(c3cn[nH]c(=O)c3C(F)(F)F)C4)CC2)nc1 [Example 492, 6-(4-(3-((2-((2-(6-Oxo-5-(trifluoromethyl)-1,6-dihydropyridazin-4-yl)isoindolin-4-yl)oxy)ethyl)amino)propanoyl)piperazin-1-yl)nicotinonitrile] | < 100 |
| COc1cc(F)c2c(c1)CN(c1cn[nH]c(=O)c1C(F)(F)F)C2 [Example 273, 5-(4-Fluoro-6-methoxyisoindolin-2-yl)-4-(trifluoromethyl)pyridazin-3(2H)-one] | < 100 |
| COc1cc(F)cc2c1CN(c1cn[nH]c(=O)c1C(F)(F)F)C2 [Example 274, 5-(6-Fluoro-4-methoxyisoindolin-2-yl)-4-(trifluoromethyl)pyridazin-3(2H)-one] | < 100 |
| N#Cc1ccc(N2CCN(C(=O)c3cncc(OCC4c5ccccc5CN4c4cn[nH]c(=O)c4C(F)(F)F)c3)CC2)nc1 (centres unmarked) [Example 352, 6-(4-(5-((2-(6-Oxo-5-(trifluoromethyl)-1,6-dihydropyridazin-4-yl)isoindolin-1-yl)methoxy)nicotinoyl)piperazin-1-yl)nicotinonitrile] | < 100 |
| O=C(C[C@@H]1CC[C@H](COc2cn[nH]c(=O)c2C(F)(F)F)O1)N1CCN(c2ncc(Cl)cn2)CC1 (single isomer, unassigned) [Example 565 Isomer D] | < 100 |
| C[C@@H](COCCC(=O)N1CCN(c2ncc(Cl)cn2)CC1)Oc1cn[nH]c(=O)c1C(F)(F)F (single isomer, unassigned) [Example 543 Isomer A] | < 100 |
| O=c1[nH]ncc(N2Cc3cccc(OC[C@@H]4CCCO4)c3C2)c1C(F)(F)F (single isomer, unassigned) [Example 222] | < 100 |
| C[C@@H](COCCC(=O)N1CCN(c2ccc(Cl)cn2)CC1)Nc1cn[nH]c(=O)c1C(F)(F)F [Example 563, 5-[[(2S)-1-[3-[4-(5-Chloropyridin-2-yl)piperazin-1-yl]-3-oxopropoxy]propan-2-yl]amino]-4-(trifluoromethyl)-2,3-dihydropyridazin-3-one] | < 100 |
